Laboratory results as given in US20100204231A1, “AMINO-THIAZOLYL-PYRIMIDINE DERIVATIVES AND THEIR USE FOR THE TREATMENT OF CANCER” (ASTRAZENECA AB, priority 2007, published 2010).

molecular target: T1, C-terminal His6-tagged, recombinant, human JAK2, amino acids 808-end (Homo sapiens, UniProt O60674); experiment: JAK2 kinase activity assay (Alphascreen); assay type: biochemical; details: 150 pM JAK2 enzyme, 30 μM ATP, 80 nM Tyk2 peptide substrate, 60 minutes, room temperature; read-out: JAK inhibitory activity IC50
T1 construct: human JAK2, amino acids 808-end; His6 (C); purchased Upstate Biotechnology; host or cells: baculovirus in Sf21 cells
T1 sequence (O60674 808-1132 limits assumed): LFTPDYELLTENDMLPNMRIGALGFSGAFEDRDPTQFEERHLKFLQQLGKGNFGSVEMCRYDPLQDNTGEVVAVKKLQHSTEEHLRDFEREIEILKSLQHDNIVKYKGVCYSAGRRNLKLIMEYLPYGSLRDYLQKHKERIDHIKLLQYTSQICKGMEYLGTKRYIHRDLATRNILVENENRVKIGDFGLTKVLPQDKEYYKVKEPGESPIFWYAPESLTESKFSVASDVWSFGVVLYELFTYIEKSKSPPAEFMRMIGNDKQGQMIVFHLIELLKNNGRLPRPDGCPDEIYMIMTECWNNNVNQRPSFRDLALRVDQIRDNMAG
Protocol: JAK2 kinase activity was determined by measuring the kinase's ability to phosphorylate synthetic tyrosine residues within a generic polypeptide substrate using an Amplified Luminescent Proximity Assay (Alphascreen) technology (PerkinElmer, 549 Albany Street, Boston, Mass.).
To measure JAK2 kinase activity, a commercially available purified enzyme may be used. The enzyme may be C-terminal His6-tagged, recombinant, human JAK2, amino acids 808-end, (Genbank Accession number NM 004972) expressed by baculovirus in Sf21 cells (Upstate Biotechnology MA). After incubation of the kinase with a biotinylated substrate and adenosine triphosphate (ATP) for 60 minutes at room temperature, the kinase reaction may be stopped by the addition of 30 mM ethylenediaminetetraacetic acid (EDTA). The reaction may be performed in 384 well microtitre plates and the reaction products may be detected with the addition of streptavidin coated Donor Beads and phosphotyrosine-specific antibodies coated Acceptor Beads using the EnVision Multilabel Plate Reader after an overnight incubation at room temperature.

In order of falling IC50:
1. Cc1cnc(Nc2nc(N[C@@H](C)c3ccc(F)cn3)ncc2Cl)s1 [Example 3, 5-Chloro-N^2-[(1S)-1-(5-fluoropyridin-2-yl)ethyl]-N^4-(5-methyl-1,3-thiazol-2-yl)pyrimidine-2,4-diamine]  902 nM
2. COC(=O)c1cnc(Nc2nc(N[C@@H](C)c3ccc(F)cc3)ncc2Cl)s1 [Example 2, Methyl 2-[(5-chloro-2-{[(1S)-1-(4-fluorophenyl)ethyl]amino}pyrimidin-4-yl)amino]-1,3-thiazole-5-carboxylate]  170 nM
3. Cc1cnc(Nc2nc(N[C@@H](C)c3ccc(F)cc3)ncc2Cl)s1 [Example 1, 5-Chloro-N^2-[(1S)-1-(4-fluorophenyl]ethyl)-N^4-(5-methyl-1,3-thiazol-2-yl)pyrimidine-2,4-diamine]  6 nM
4. COc1cc(Nc2ncc(C)s2)nc(N[C@@H](C)c2ncc(F)cn2)n1 [Example 10, (S)—N^2-(1-(5-Fluoropyrimidin-2-yl)ethyl)-6-methoxy-N^4-(5-methylthiazol-2-yl)pyrimidine-2,4-diamine]  3 nM
5. Cc1cnc(Nc2nc(N[C@@H](C)c3ncc(F)cn3)nc(N3CCOCC3)c2F)s1 [Example 4, 5-Fluoro-N^2-[(1S)-1-(5-fluoropyrimidin-2-yl)ethyl]-N^4-(5-methyl-1,3-thiazol-2-yl)-6-morpholin-4-ylpyrimidine-2,4-diamine]  3 nM
6. C[C@H](Nc1nc(Nc2ncc(C#N)s2)cc(N2CCOCC2)n1)c1ccc(F)cn1 [Example 8, 2-[(2-{[(1S)-1-(5-Fluoropyridin-2-yl)ethyl]amino}-6-morpholin-4-ylpyrimidin-4-yl)amino]-1,3-thiazole-5-carbonitrile]  3 nM
7. Cc1cnc(Nc2cc(N3CCN(C)CC3)nc(N[C@@H](C)c3ccc(F)cn3)n2)s1 [Example 5, N^2-[(S)-1-(5-Fluoro-pyridin-2-yl)-ethyl]-6-(4-methyl-piperazin-1-yl)-N^4-(5-methyl-thiazol-2-yl)-pyrimidine-2,4-diamine]  3 nM
